Measured values from paper PMC5218480 (PLoS ONE, 2017).

Tested on: MV-4-11 cells
Assay: Gene expression microarray analysis (Affymetrix PrimeView) and GSEA
Format: cell-based, human
Parameters: RFU PODN (11730768_x_at) / Fold change /veh PODN (11730768_x_at) / RFU LINC00158 (11744669_a_at) / Fold change /veh LINC00158 (11744669_a_at) / RFU DUSP10 (11751237_a_at) / Fold change /veh DUSP10 (11751237_a_at) / RFU ID3 (11757404_x_at) / Fold change /veh ID3 (11757404_x_at) / RFU PLEKHG5 (11737974_s_at) / Fold change /veh PLEKHG5 (11737974_s_at) / RFU LRRC4B (11730491_at) / Fold change /veh LRRC4B (11730491_at) / RFU GIMAP4 (11747438_a_at) / Fold change /veh GIMAP4 (11747438_a_at) / RFU KRT8 (11758183_x_at) / Fold change /veh KRT8 (11758183_x_at) / RFU CNN1 (11734310_a_at) / Fold change /veh CNN1 (11734310_a_at) / RFU VPS37D (11726825_at) / Fold change /veh VPS37D (11726825_at) / RFU C10orf10 (11716522_x_at) / Fold change /veh C10orf10 (11716522_x_at) / RFU KIR2DL2 /// KIR2DL4 /// KIR2DL5A /// KIR2DL5B /// KIR2DS1 /// KIR2DS2 /// KIR2DS3 /// KIR2DS4 /// KIR3DL3 /// KIR3DL3 /// KIR3DS1 (11738374_at) / Fold change /veh KIR2DL2 /// KIR2DL4 /// KIR2DL5A /// KIR2DL5B /// KIR2DS1 /// KIR2DS2 /// KIR2DS3 /// KIR2DS4 /// KIR3DL3 /// KIR3DL3 /// KIR3DS1 (11738374_at) / RFU C1QL1 (11718748_at) / Fold change /veh C1QL1 (11718748_at) / RFU TMPRSS4 (11747572_a_at) / Fold change /veh TMPRSS4 (11747572_a_at) / RFU HAMP (11756126_x_at) / Fold change /veh HAMP (11756126_x_at) / RFU RNFT2 (11725882_a_at) / Fold change /veh RNFT2 (11725882_a_at) / RFU NR4A2 (11747474_a_at) / Fold change /veh NR4A2 (11747474_a_at) / RFU ABCC12 (11746883_a_at) / Fold change /veh ABCC12 (11746883_a_at) / RFU TMEM136 (11760407_x_at) / Fold change /veh TMEM136 (11760407_x_at) / RFU CLDN22 /// WWC2 (11732394_at) / Fold change /veh CLDN22 /// WWC2 (11732394_at) / RFU HLA-DPB1 (11760878_x_at) / Fold change /veh HLA-DPB1 (11760878_x_at) / RFU SPINT1 (11716480_a_at) / Fold change /veh SPINT1 (11716480_a_at) / RFU GAP43 (11754022_s_at) / Fold change /veh GAP43 (11754022_s_at) / RFU A4GNT (11735810_at) / Fold change /veh A4GNT (11735810_at) / RFU PRB3 (11715151_x_at) / Fold change /veh PRB3 (11715151_x_at) / RFU TUBB4B (11761932_at) / Fold change /veh TUBB4B (11761932_at) / RFU CAPN14 (11732068_a_at) / Fold change /veh CAPN14 (11732068_a_at) / RFU TMCC2 (11721928_a_at) / Fold change /veh TMCC2 (11721928_a_at) / RFU IRGQ (11745062_a_at) / Fold change /veh IRGQ (11745062_a_at) / RFU FAM174B (11720279_a_at) / Fold change /veh FAM174B (11720279_a_at) / RFU TMPRSS4 (11748680_a_at) / Fold change /veh TMPRSS4 (11748680_a_at) / RFU FAM212B (11763350_a_at) / Fold change /veh FAM212B (11763350_a_at) / RFU PLEKHG5 (11743358_a_at) / Fold change /veh PLEKHG5 (11743358_a_at) / RFU ZSCAN30 (11745921_a_at) / Fold change /veh ZSCAN30 (11745921_a_at) / RFU CMKLR1 (11741424_a_at) / Fold change /veh CMKLR1 (11741424_a_at) / RFU LOC101060620 /// MAPK8IP1 (11723275_at) / Fold change /veh LOC101060620 /// MAPK8IP1 (11723275_at) / RFU SPTSSB (11747773_x_at) / Fold change /veh SPTSSB (11747773_x_at) / RFU PRSS12 (11739890_at) / Fold change /veh PRSS12 (11739890_at) / RFU BIN1 (11741810_x_at) / Fold change /veh BIN1 (11741810_x_at) / RFU WNT11 (11732464_a_at) / Fold change /veh WNT11 (11732464_a_at) / RFU C10orf10 (11716521_a_at) / Fold change /veh C10orf10 (11716521_a_at) / RFU C5orf56 (11738089_at) / Fold change /veh C5orf56 (11738089_at) / RFU CYB561 (11721691_x_at) / Fold change /veh CYB561 (11721691_x_at) / RFU ANKRD19P (11752326_a_at) / Fold change /veh ANKRD19P (11752326_a_at) / RFU OR2T12 /// OR2T33 /// OR2T8 (11738714_s_at) / Fold change /veh OR2T12 /// OR2T33 /// OR2T8 (11738714_s_at) / RFU VCAN (11748164_a_at) / Fold change /veh VCAN (11748164_a_at) / RFU JSRP1 (11732532_at) / Fold change /veh JSRP1 (11732532_at) / RFU KRTAP10-11 (11738290_x_at) / Fold change /veh KRTAP10-11 (11738290_x_at) / RFU MYO3A (11730013_a_at) / Fold change /veh MYO3A (11730013_a_at) / RFU EBF3 (11725865_a_at) / Fold change /veh EBF3 (11725865_a_at) / RFU CAMK2N1 (11719241_x_at) / Fold change /veh CAMK2N1 (11719241_x_at) / RFU C5orf56 (11738088_a_at) / Fold change /veh C5orf56 (11738088_a_at) / RFU OLFML3 (11715873_a_at) / Fold change /veh OLFML3 (11715873_a_at) / RFU LOC100653217 /// NTM (11731650_a_at) / Fold change /veh LOC100653217 /// NTM (11731650_a_at) / RFU MAPK11 (11762145_a_at) / Fold change /veh MAPK11 (11762145_a_at) / RFU FIZ1 (11724087_x_at) / Fold change /veh FIZ1 (11724087_x_at) / RFU OASL (11726364_x_at) / Fold change /veh OASL (11726364_x_at) / RFU SOX15 (11748057_x_at) / Fold change /veh SOX15 (11748057_x_at) / RFU CD79A (11719716_a_at) / Fold change /veh CD79A (11719716_a_at) / RFU HIST1H1D (11736915_at) / Fold change /veh HIST1H1D (11736915_at) / RFU CASKIN2 (11723855_a_at) / Fold change /veh CASKIN2 (11723855_a_at) / RFU LOC730098 (11760151_x_at) / Fold change /veh LOC730098 (11760151_x_at) / RFU OR4N2 (11742367_at) / Fold change /veh OR4N2 (11742367_at) / RFU PRRT2 (11749266_a_at) / Fold change /veh PRRT2 (11749266_a_at) / RFU SNX32 (11753110_a_at) / Fold change /veh SNX32 (11753110_a_at) / RFU CDHR5 (11726645_a_at) / Fold change /veh CDHR5 (11726645_a_at) / RFU RCAN1 (11760418_a_at) / Fold change /veh RCAN1 (11760418_a_at) / RFU FAM167A (11723789_a_at) / Fold change /veh FAM167A (11723789_a_at) / RFU FAM26E (11764081_at) / Fold change /veh FAM26E (11764081_at) / RFU ISYNA1 (11749810_s_at) / Fold change /veh ISYNA1 (11749810_s_at) / RFU ACY1 (11761880_at) / Fold change /veh ACY1 (11761880_at) / RFU 11764098_at / Fold change /veh 11764098_at / RFU SAMD14 (11745864_x_at) / Fold change /veh SAMD14 (11745864_x_at) / RFU NPB (11741838_a_at) / Fold change /veh NPB (11741838_a_at) / RFU TMPRSS6 (11731388_a_at) / Fold change /veh TMPRSS6 (11731388_a_at) / RFU KRTAP10-2 (11738614_at) / Fold change /veh KRTAP10-2 (11738614_at) / RFU ARHGAP8 /// PRR5-ARHGAP8 (11727945_x_at) / Fold change /veh ARHGAP8 /// PRR5-ARHGAP8 (11727945_x_at) / RFU KRTAP5-7 /// NADSYN1 (11734609_at) / Fold change /veh KRTAP5-7 /// NADSYN1 (11734609_at) / RFU RASL12 (11751679_a_at) / Fold change /veh RASL12 (11751679_a_at) / RFU CDKN2B (11736163_a_at) / Fold change /veh CDKN2B (11736163_a_at) / RFU PRF1 (11729649_at) / Fold change /veh PRF1 (11729649_at) / RFU, ZNF638 /// ZNF638-IT1 / Fold change vs veh, ZNF638 /// ZNF638-IT1 / RFU, PANK3 / Fold change vs veh, PANK3 / RFU, SH3YL1 / Fold change vs veh, SH3YL1 / RFU, ZEB2 / Fold change vs veh, ZEB2 / RFU, NRIP1 / Fold change vs veh, NRIP1 / RFU, PTTG1IP / Fold change vs veh, PTTG1IP / RFU, CAPN2 / Fold change vs veh, CAPN2 / RFU, MED14 / Fold change vs veh, MED14 / RFU, SNORA58 / Fold change vs veh, SNORA58 / RFU, C1orf63 / Fold change vs veh, C1orf63 / RFU, LRRFIP1 / Fold change vs veh, LRRFIP1 / RFU, NDUFAF7 / Fold change vs veh, NDUFAF7 / RFU, SLC12A2 / Fold change vs veh, SLC12A2 / RFU, IBTK / Fold change vs veh, IBTK / RFU, ESF1 / Fold change vs veh, ESF1 / Fold change vs veh, TMEM50B / RFU, TAOK1 / Fold change vs veh, TAOK1 / RFU, ACBD3 / Fold change vs veh, ACBD3 / RFU, TMA16 / Fold change vs veh, TMA16 / RFU, RWDD3 / Fold change vs veh, RWDD3 / RFU, BCAT1 / Fold change vs veh, BCAT1 / RFU, EDEM3 / Fold change vs veh, EDEM3 / RFU, TMEM33 / Fold change vs veh, TMEM33 / RFU, WDR75 / Fold change vs veh, WDR75 / RFU, AHCTF1 / Fold change vs veh, AHCTF1 / RFU, TFRC / Fold change vs veh, TFRC / RFU, ZDHHC17 / Fold change vs veh, ZDHHC17 / RFU, NOM1 / Fold change vs veh, NOM1 / RFU, ARL8B / Fold change vs veh, ARL8B / RFU, ZBTB11 / Fold change vs veh, ZBTB11 / RFU, TAMM41 / Fold change vs veh, TAMM41 / RFU, KIAA1704 /// LOC100996395 / Fold change vs veh, KIAA1704 /// LOC100996395 / RFU, ING1 / Fold change vs veh, ING1 / RFU, TRMT61B / Fold change vs veh, TRMT61B / RFU, FUBP3 / Fold change vs veh, FUBP3 / RFU, TP53 / Fold change vs veh, TP53 / RFU, TNKS2 / Fold change vs veh, TNKS2 / RFU, ZFP14 / Fold change vs veh, ZFP14 / RFU, ACTR2 / Fold change vs veh, ACTR2 / RFU, PPP3R1 / Fold change vs veh, PPP3R1 / RFU, PIK3R1 / Fold change vs veh, PIK3R1 / RFU, HNRNPA1 / Fold change vs veh, HNRNPA1 / RFU, RNF170 / Fold change vs veh, RNF170 / RFU, ZNF28 / Fold change vs veh, ZNF28 / RFU, RNGTT / Fold change vs veh, RNGTT / RFU, OGT / Fold change vs veh, OGT / RFU, BRD1 / Fold change vs veh, BRD1 / RFU, MARS / Fold change vs veh, MARS / RFU, ZNF655 / Fold change vs veh, ZNF655 / RFU, FAHD1 / Fold change vs veh, FAHD1 / RFU, BDP1 / Fold change vs veh, BDP1 / RFU, LRRCC1 / Fold change vs veh, LRRCC1 / RFU, ARID1A / Fold change vs veh, ARID1A / RFU, ZNF146 / Fold change vs veh, ZNF146 / RFU, ZNF330 / Fold change vs veh, ZNF330 / RFU, GPN3 / Fold change vs veh, GPN3 / RFU, C9orf123 / Fold change vs veh, C9orf123 / RFU, N4BP2L2 / Fold change vs veh, N4BP2L2 / RFU, ARFIP1 / Fold change vs veh, ARFIP1 / RFU, FAM179B / Fold change vs veh, FAM179B / RFU, BCL10 / Fold change vs veh, BCL10 / RFU, UHRF1BP1L / Fold change vs veh, UHRF1BP1L / RFU, BET1 / Fold change vs veh, BET1 / RFU, CNOT2 / Fold change vs veh, CNOT2 / RFU, ZNF268 / Fold change vs veh, ZNF268 / Fold change vs veh, ZNF507 / RFU, DGCR2 / Fold change vs veh, DGCR2 / RFU, WDSUB1 / Fold change vs veh, WDSUB1 / Fold change vs veh, HSP90B1 /// MIR3652 / RFU, ADSS / Fold change vs veh, ADSS / RFU, GK / Fold change vs veh, GK / RFU, ZNF148 / Fold change vs veh, ZNF148 / RFU, TAF9 / Fold change vs veh, TAF9 / RFU, SLC1A5 / Fold change vs veh, SLC1A5 / RFU, SLMO2 / Fold change vs veh, SLMO2 / RFU, ABCC4 / Fold change vs veh, ABCC4 / RFU, LOC101060439 /// RAP1B / Fold change vs veh, LOC101060439 /// RAP1B / RFU, RFX7 / Fold change vs veh, RFX7 / RFU, GTPBP10 / Fold change vs veh, GTPBP10 / RFU, CNEP1R1 / Fold change vs veh, CNEP1R1 / RFU, BIVM-ERCC5 /// ERCC5 / Fold change vs veh, BIVM-ERCC5 /// ERCC5 / RFU, ILF3 / Fold change vs veh, ILF3 / RFU 11762660_at / Fold change /veh 11762660_at / RFU VCAN (11757783_s_at) / Fold change /veh VCAN (11757783_s_at) / RFU DDX43 (11728927_at) / Fold change /veh DDX43 (11728927_at) / RFU KRT8 (11758188_x_at) / Fold change /veh KRT8 (11758188_x_at) / RFU NKD1 (11759106_at) / Fold change /veh NKD1 (11759106_at) / RFU SRD5A1 (11742802_a_at) / Fold change /veh SRD5A1 (11742802_a_at) / RFU TPSAB1 /// TPSB2 (11721975_s_at) / Fold change /veh TPSAB1 /// TPSB2 (11721975_s_at) / RFU GSTM3 (11746129_a_at) / Fold change /veh GSTM3 (11746129_a_at) / RFU IL23R (11737362_x_at) / Fold change /veh IL23R (11737362_x_at) / RFU TMEM51 (11727254_a_at) / Fold change /veh TMEM51 (11727254_a_at) / RFU PIWIL2 (11732686_x_at) / Fold change /veh PIWIL2 (11732686_x_at) / RFU ORM1 (11744905_x_at) / Fold change /veh ORM1 (11744905_x_at) / RFU CCDC152 (11743942_at) / Fold change /veh CCDC152 (11743942_at) / RFU ECM1 (11717891_a_at) / Fold change /veh ECM1 (11717891_a_at) / RFU IL23R (11748794_a_at) / Fold change /veh IL23R (11748794_a_at) / RFU TNFAIP8L3 (11732012_x_at) / Fold change /veh TNFAIP8L3 (11732012_x_at) / RFU MBOAT4 (11741988_at) / Fold change /veh MBOAT4 (11741988_at) / RFU 11764193_at / Fold change /veh 11764193_at / RFU TMEM53 (11763286_at) / Fold change /veh TMEM53 (11763286_at) / RFU MAGEB2 (11727129_at) / Fold change /veh MAGEB2 (11727129_at) / RFU TMEM200A (11744735_a_at) / Fold change /veh TMEM200A (11744735_a_at) / RFU CCDC152 (11751479_a_at) / Fold change /veh CCDC152 (11751479_a_at) / RFU FAM211A (11726209_a_at) / Fold change /veh FAM211A (11726209_a_at) / RFU RGS16 (11746705_a_at) / Fold change /veh RGS16 (11746705_a_at) / RFU VCAN (11755009_s_at) / Fold change /veh VCAN (11755009_s_at) / RFU RHOB (11743442_s_at) / Fold change /veh RHOB (11743442_s_at) / RFU RGS16 (11720943_a_at) / Fold change /veh RGS16 (11720943_a_at) / RFU RGS16 (11720944_at) / Fold change /veh RGS16 (11720944_at) / RFU, VPS4B / Fold change vs veh, VPS4B / RFU, CREB1 / Fold change vs veh, CREB1 / RFU, DNAJC13 / Fold change vs veh, DNAJC13 / RFU, GNAQ / Fold change vs veh, GNAQ / RFU, CDK5R1 / Fold change vs veh, CDK5R1 / RFU, ZRANB3 / Fold change vs veh, ZRANB3 / RFU, CUL4A / Fold change vs veh, CUL4A / RFU, CCNY / Fold change vs veh, CCNY / RFU, UFL1 / Fold change vs veh, UFL1 / RFU, COG3 / Fold change vs veh, COG3 / RFU, DIAPH2 / Fold change vs veh, DIAPH2 / RFU, SKA2 / Fold change vs veh, SKA2 / RFU, AFF3 / Fold change vs veh, AFF3 / RFU, LMF1 / Fold change vs veh, LMF1 / RFU, IPO11 / Fold change vs veh, IPO11 / RFU, DFFB / Fold change vs veh, DFFB / RFU, FOXP1 / Fold change vs veh, FOXP1 / RFU, CARD8 / Fold change vs veh, CARD8 / RFU, STRN3 / Fold change vs veh, STRN3 / RFU, ADK / Fold change vs veh, ADK / RFU, RASSF2 / Fold change vs veh, RASSF2 / RFU, WIPF1 / Fold change vs veh, WIPF1 / RFU, LARP1B / Fold change vs veh, LARP1B / RFU, RASA1 / Fold change vs veh, RASA1 / RFU, RB1 / Fold change vs veh, RB1 / RFU, PPFIA1 / Fold change vs veh, PPFIA1 / RFU, MAT2A / Fold change vs veh, MAT2A / RFU, CCT5 / Fold change vs veh, CCT5 / RFU, WDR92 / Fold change vs veh, WDR92 / RFU, CUX1 / Fold change vs veh, CUX1 / RFU, TTC7A / Fold change vs veh, TTC7A / RFU, TMEM135 / Fold change vs veh, TMEM135 / RFU, DEPTOR / Fold change vs veh, DEPTOR / RFU, CPM / Fold change vs veh, CPM / RFU, DNAJB6 / Fold change vs veh, DNAJB6 / RFU, CACNA2D3 / Fold change vs veh, CACNA2D3 / RFU, DTX4 / Fold change vs veh, DTX4 / RFU, TFCP2 / Fold change vs veh, TFCP2 / RFU, GMCL1 /// GMCL1P1 / Fold change vs veh, GMCL1 /// GMCL1P1 / RFU, AEBP2 / Fold change vs veh, AEBP2 / RFU, SNHG1 /// SNORD22 /// SNORD25 /// SNORD26 /// SNORD27 /// SNORD28 /// SNORD29 /// SNORD31 / Fold change vs veh, SNHG1 /// SNORD22 /// SNORD25 /// SNORD26 /// SNORD27 /// SNORD28 /// SNORD29 /// SNORD31 / Fold change (Aza/veh), C12orf56 (ProbeSet 11735607_a_at) / Fold change (ACY-1035/veh), C12orf56 (ProbeSet 11735607_a_at) / Fold change (Aza/veh), FGFR1OP (ProbeSet 11751329_s_at) / Fold change (ACY-1035/veh), FGFR1OP (ProbeSet 11751329_s_at) / Fold change (Aza/veh), VPS36 (ProbeSet 11739960_a_at) / Fold change (ACY-1035/veh), VPS36 (ProbeSet 11739960_a_at) / RFU SYPL1 (11715823_x_at) / Fold change /veh SYPL1 (11715823_x_at) / RFU IGFBP7 (11715501_s_at) / Fold change /veh IGFBP7 (11715501_s_at) / RFU REEP3 (11722064_at) / Fold change /veh REEP3 (11722064_at) / RFU IGLL1 (11728026_x_at) / Fold change /veh IGLL1 (11728026_x_at): dose or concentration left out as unconfirmed
Conditions: ProbeSet 11719632_a_at; LIST B

SMILES: Nc1ncn([C@@H]2O[C@H](CO)[C@@H](O)[C@H]2O)c(=O)n1 [azacitidine]
- Fold change vs veh, ABCC4: 0.85
